Data as given in patent US20230151025A1, “SUBSTITUTED THIAZOLOPYRIDINES, SALTS THEREOF AND THEIR USE AS HERBICIDALLY ACTIVE SUBSTANCES” (Bayer Aktiengesellschaft, priority 2020, published 2023).

Experiments:
Format in all cases: in vivo
[1] = system: Echinochloa crus-galli (ECHCG); test: Herbicidal post-emergence action (D), 320 g/ha; details: ca. 3 weeks
Description: (§1) ABUTH: Abutilon theophrasti AGSTE: Agrostis tenuis ALOMY: Alopecurus myosuroides AMARE Amaranthus retroflexus DIGSA: Digitaria sanguinalis ECHCG: Echinochloa crus-galli KCHSC: Kochia scoparia LOLRI: Lolium rigidum MATIN: Matricaria inodora POAAN: Poa annua POLCO: Polygonum convolvulus SETVI: Setaria viridis STEME: Stellaria media VERPE: Veronica persica VIOTR: Viola tricolor
(§2) Seeds of mono- and dicotyledonous weed plants and crop plants were sown, in plastic or organic planting pots, in sandy loam, covered with soil and grown in a greenhouse under controlled growth conditions. 2 to 3 weeks after sowing, the test plants were sprayed in the single-leaf stage. The compounds according to the invention, formulated in form of wettable powders (WP) or as emulsifiable concentrates (EC), were sprayed onto the green plant parts as aqueous suspension or emulsion, with the addition of 0.5% of an additive, at an application rate of 600 l of water/ha (converted). The test plants were placed in the greenhouse for ca. 3 weeks under optimum growth conditions, and then the effect of the preparations was assessed visually in comparison with untreated controls (herbicidal effect in percent (%): 100% effect=plants have died off, 0% effect=as control plants).
(§3) Tables D1 to D13 below show the effects of selected compounds of the general formula (I) according to table 1 on various harmful plants and an application rate corresponding to 320 g/ha obtained by the experimental procedure mentioned above.

[2] = system: Setaria viridis (SETVI); test: Herbicidal post-emergence action (D), 320 g/ha; details: ca. 3 weeks
Description: as §1, §2, §3

[3] = system: Veronica persica (VERPE); test: Herbicidal post-emergence action (D), 320 g/ha; details: ca. 3 weeks
Description: as §1, §2, §3

[4] = system: Amaranthus retroflexus (AMARE); test: Herbicidal post-emergence action (D), 320 g/ha; details: ca. 3 weeks
Description: as §1, §2, §3

[5] = system: Echinochloa crus-galli (ECHCG); test: Herbicidal pre-emergence action (A), 1280 g/ha; details: visual grading after ca. 3 weeks vs untreated controls, 100% = plants have died off, 0% = as control plants
How it was run: (§4)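 Visual grading of plant damage in percent (0% as untreated control, 100% dead) was done about 3 weeks after treatment. Compounds, as WP or EC in water with 0.5% additive, had been sprayed at 600 l/ha onto the covering soil of freshly sown sandy loam pots.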

[6] = system: Setaria viridis (SETVI); test: Herbicidal pre-emergence action (A), 1280 g/ha; details: visual grading after ca. 3 weeks vs untreated controls
How it was run: as §4

[7] = system: Abutilon theophrasti (ABUTH); test: Herbicidal pre-emergence action (A), 1280 g/ha; details: visual grading after ca. 3 weeks vs untreated controls, 100% = plants have died off, 0% = as control plants
How it was run: as §4

[8] = system: Veronica persica (VERPE); test: Herbicidal pre-emergence action (A), 1280 g/ha; details: visual grading after ca. 3 weeks vs untreated controls
How it was run: as §4

[9] = system: Alopecurus myosuroides (ALOMY); test: Herbicidal pre-emergence action (A), 1280 g/ha; details: visual grading after ca. 3 weeks vs untreated controls, 100% = plants have died off, 0% = as control plants
How it was run: as §4

[10] = system: Poa annua (POAAN); test: Herbicidal pre-emergence action (A), 1280 g/ha; details: visual grading after ca. 3 weeks vs untreated controls, 100% = plants have died off, 0% = as control plants
How it was run: as §4

[11] = system: Amaranthus retroflexus (AMARE); test: Herbicidal pre-emergence action (A), 1280 g/ha; details: visual grading after ca. 3 weeks vs untreated controls
How it was run: as §4

[12] = system: Lolium rigidum (LOLRI); test: Herbicidal pre-emergence action (A), 1280 g/ha; details: visual grading after ca. 3 weeks vs untreated controls, 100% = plants have died off, 0% = as control plants
How it was run: as §4

[13] = system: Stellaria media (STEME); test: Herbicidal pre-emergence action (A), 1280 g/ha; details: visual grading after ca. 3 weeks vs untreated controls
How it was run: as §4

[14] = system: Matricaria inodora (MATIN); test: Herbicidal pre-emergence action (A), 1280 g/ha; details: visual grading after ca. 3 weeks vs untreated controls
How it was run: as §4

[15] = system: Kochia scoparia (KCHSC; Bassia scoparia); test: Herbicidal pre-emergence action (A), 1280 g/ha; details: visual grading after ca. 3 weeks vs untreated controls
How it was run: as §4

[16] = system: Echinochloa crus-galli (ECHCG); test: Herbicidal post-emergence action (B), 1280 g/ha; details: rated visually after about 3 weeks vs untreated controls
How it was run: (§5)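 Greenhouse-grown weeds at the one-leaf stage received a foliar spray of the formulated compound (WP or EC, 0.5% additive, 600 L/ha). Damage was scored visually after about 3 weeks on a 0–100% scale against untreated plants.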

[17] = system: Veronica persica (VERPE); test: Herbicidal post-emergence action (B), 1280 g/ha
How it was run: as §5

[18] = system: Alopecurus myosuroides (ALOMY); test: Herbicidal post-emergence action (B), 1280 g/ha; details: rated visually after about 3 weeks vs untreated controls
How it was run: as §5

[19] = system: Poa annua (POAAN); test: Herbicidal post-emergence action (B), 1280 g/ha; details: rated visually after about 3 weeks vs untreated controls
How it was run: as §5

[20] = system: Stellaria media (STEME); test: Herbicidal post-emergence action (B), 1280 g/ha
How it was run: as §5

[21] = system: Kochia scoparia (KCHSC; Bassia scoparia); test: Herbicidal post-emergence action (B), 1280 g/ha
How it was run: as §5

[22] = system: Echinochloa crus-galli (ECHCG); test: Herbicidal pre-emergence action (C), 320 g/ha; details: ca. 3 weeks
Description: as §1
(§6) Seeds of mono- and dicotyledonous weed plants and crop plants were sown, in plastic or organic planting pots, in sandy loam and covered with soil. The compounds according to the invention, formulated in the form of wettable powders (WP) or as emulsifiable concentrates (EC), were applied to the surface of the covering soil as aqueous suspension or emulsion, with the addition of 0.5% of an additive, at an application rate of 600 l of water/ha (converted).
(§7) Following treatment, the pots were placed in a greenhouse and kept under optimum growth conditions for the test plants. The visual grading of the damage to the test plants was carried out after ca. 3 weeks in comparison to untreated controls (herbicidal effect in percent (%): 100% effect=plants have died off, 0% effect=as control plants).
(§8) Tables C1 to C13 below show the effects of selected compounds of the general formula (I) according to table 1 on various harmful plants and an application rate corresponding to 320 g/ha obtained by the experimental procedure mentioned above.

[23] = system: Setaria viridis (SETVI); test: Herbicidal pre-emergence action (C), 320 g/ha; details: ca. 3 weeks
Description: as §1, §6, §7, §8

[24] = system: Alopecurus myosuroides (ALOMY); test: Herbicidal pre-emergence action (C), 320 g/ha; details: ca. 3 weeks
Description: as §1, §6, §7, §8

[25] = system: Amaranthus retroflexus (AMARE); test: Herbicidal pre-emergence action (C), 320 g/ha; details: ca. 3 weeks
Description: as §1, §6, §7, §8

[26] = system: Lolium rigidum (LOLRI); test: Herbicidal pre-emergence action (C), 320 g/ha; details: ca. 3 weeks
Description: as §1, §6, §7, §8

[27] = system: Matricaria inodora (MATIN); test: Herbicidal pre-emergence action (C), 320 g/ha; details: ca. 3 weeks
Description: as §1, §6, §7, §8

[28] = system: Amaranthus retroflexus (AMARE); test: Herbicidal post-emergence action (B), 1280 g/ha; details: rated visually after about 3 weeks vs untreated controls
How it was run: as §5

[29] = system: Matricaria inodora (MATIN); test: Herbicidal post-emergence action (B), 1280 g/ha; details: rated visually after about 3 weeks vs untreated controls
How it was run: as §5

[30] = system: Veronica persica (VERPE); test: Herbicidal pre-emergence action (C), 320 g/ha; details: ca. 3 weeks
Description: as §1, §6, §7, §8

[31] = system: Digitaria sanguinalis (DIGSA); test: Herbicidal pre-emergence action (A), 1280 g/ha; details: visual grading after ca. 3 weeks vs untreated controls, 100% = plants have died off, 0% = as control plants
How it was run: as §4

[32] = system: Digitaria sanguinalis (DIGSA); test: Herbicidal post-emergence action (B), 1280 g/ha; details: rated visually after about 3 weeks vs untreated controls
How it was run: as §5

[33] = system: Abutilon theophrasti (ABUTH); test: Herbicidal post-emergence action (B), 1280 g/ha; details: rated visually after about 3 weeks vs untreated controls
How it was run: as §5

[34] = system: Lolium rigidum (LOLRI); test: Herbicidal post-emergence action (B), 1280 g/ha; details: one-leaf stage, rated after about 3 weeks vs untreated controls, 100% activity = the plants have died, 0% = like control plants
How it was run: as §5

[35] = system: Setaria viridis (SETVI); test: Herbicidal post-emergence action (B), 1280 g/ha; details: rated visually after about 3 weeks vs untreated controls
How it was run: as §5

Structure (SMILES)	ECHCG, herbicidal effect in percent (%) [5] [%]	herbicidal effect SETVI [6] [%]	ABUTH, herbicidal effect in percent (%) [7] [%]	herbicidal effect VERPE [8] [%]	ALOMY, herbicidal effect in percent (%) [9] [%]	POAAN, herbicidal effect in percent (%) [10] [%]	herbicidal effect AMARE [11] [%]	LOLRI, herbicidal effect in percent (%) [12] [%]	herbicidal effect STEME [13] [%]	herbicidal effect MATIN [14] [%]	herbicidal effect KCHSC [15] [%]	herbicidal effect VERPE [17] [%]	herbicidal activity ALOMY [18] [%]	herbicidal activity POAAN [19] [%]	herbicidal effect STEME [20] [%]	herbicidal effect KCHSC [21] [%]	herbicidal effect SETVI [23] [%]	herbicidal effect ALOMY [24] [%]	herbicidal effect AMARE [25] [%]	herbicidal activity AMARE [28] [%]	other results
Clc1cc2scnc2nc1-c1ccsc1Cl [Example I-190]	100	100	90	90	100	100	90	100	90	100	90	100	100	100	90	90	100	100	90		herbicidal effect ECHCG [1]: 90%; herbicidal effect SETVI [2]: 80%; herbicidal effect VERPE [3]: 80%; herbicidal effect AMARE [4]: 80%; herbicidal activity ECHCG [16]: 100%; herbicidal effect ECHCG [22]: 100%; herbicidal effect LOLRI [26]: 100%; herbicidal effect MATIN [27]: 80%
Cc1sccc1-c1nc2ncsc2cc1Br [Example I-135]	100	100		90	90	100	90	100	90	100	90	90	90	90		90	100	100	90	90	herbicidal effect ECHCG [1]: 80%; herbicidal activity MATIN [29]: 90%; herbicidal effect ECHCG [22]: 100%; herbicidal effect VERPE [30]: 80%; herbicidal effect LOLRI [26]: 100%; herbicidal effect MATIN [27]: 80%
Cc1cc2scnc2nc1-c1ccccc1C(F)(F)F [Example I-064]	100	100	90	90		100	100	100	100		100	90			100	100					DIGSA, herbicidal effect in percent (%) [31]: 100%; herbicidal activity MATIN [29]: 100%
Fc1cccc(-c2nc3ncsc3cc2Cl)c1 [Example I-068]	100	100		90	100	100	90	100	100		100	100	90	100	90	100	100	100	90	90	herbicidal effect AMARE [4]: 90%; DIGSA, herbicidal effect in percent (%) [31]: 100%; herbicidal activity DIGSA [32]: 100%; herbicidal activity ABUTH [33]: 90%; LOLRI, activity rated visually (%) [34]: 90%; herbicidal effect VERPE [30]: 80%
Fc1cccc(-c2nc3ncsc3cc2Cl)c1F [Example I-114]	100	100	90	100	100	100	90	100	90	90	90	90	90			90	90	90	90	90	herbicidal activity ECHCG [16]: 90%; herbicidal activity SETVI [35]: 90%; herbicidal activity ABUTH [33]: 90%; herbicidal effect ECHCG [22]: 100%; herbicidal effect VERPE [30]: 80%; herbicidal effect LOLRI [26]: 100%; herbicidal effect MATIN [27]: 80%
Cc1cscc1-c1ccc2scnc2n1 [Example I-134]		100			90	90		100	100	90				90						90	LOLRI, activity rated visually (%) [34]: 90%
